Patent US9913820B2, “Antimicrobial compositions comprising glyceryl nitrates” (Board of Regents, The University of Texas System, priority 2012, dated 2018)
Read-outs that look alike come from different tables or passages of the source.

Tests used:
[1] = test system: Candida albicans (CA) biofilm; assay: Modified Kuhns Biofilm Eradication Model (silicone discs), CA; assay type: cell-based; conditions: for viable colonies recovered from the biofilm eradication procedure: CA, 2 hrs
[2] = test system: Methicilin resistant Staphyloccus aureus (MRSA) biofilm; assay: Modified Kuhns Biofilm Eradication Model (silicone discs), MRSA; assay type: cell-based; conditions: for viable colonies recovered from the biofilm eradication procedure: MRSA, 2 hrs; for GTN concentration required to eradicate MRSA: 7% citrate
[3] = test system: Pseudomonas aeruginosa (PA) biofilm; assay: Modified Kuhns Biofilm Eradication Model (silicone discs), PA; assay type: cell-based; conditions: for viable colonies recovered from the biofilm eradication procedure: PA, 2 hrs
[4] = test system: Staphylococcus aureus, Pseudomonas aeruginosa and Candida albicans biofilms; conditions: in the presence of ethanol and citrate
[5] = 10% ethanol and 7% citrate, FIG. 5

O=C(O)CC(O)(CC(=O)O)C(=O)O [Citrate]
viable colonies recovered from the biofilm eradication procedure ([1]; component alone at 7%): 2.16E+04 cfu/ml | eradication of mature biofilm within 2 hours (in words) ([1]; Candida Albicans, 7% alone): neither 1 mg/ml GTN nor 7% citrate alone were able to eradicate | viable colonies recovered from the biofilm eradication procedure ([2]; component alone at 7%): 2.92E+04 cfu/ml | viable colonies recovered from the biofilm eradication procedure ([3]; component alone at 7%): 2.24E+04 cfu/ml | eradication of mature biofilm within 2 hours (in words) ([3]; Pseudomonas Aeruginosa, 7% alone): neither 1 mg/ml GTN nor 7% citrate alone were able to eradicate

CCN(CC)C(=S)SSC(=S)N(CC)CC [Disulfiram]
viable colonies recovered from the biofilm eradication procedure ([1]; component alone at 0.2 mg/ml): 0.00E+00 cfu/ml | viable colonies recovered from the biofilm eradication procedure ([2]; component alone at 0.2 mg/ml): 2.00E+04 cfu/ml | viable colonies recovered from the biofilm eradication procedure ([3]; component alone at 0.2 mg/ml): 5.00E+05 cfu/ml

O=[N+]([O-])OCC(CO[N+](=O)[O-])O[N+](=O)[O-] [GTN, glyceryl trinitrate]
GTN concentration to fully eradicate mature biofilms within 2 hours [4]: 100 microgram/ml | reduction of GTN concentration versus what would be needed by itself ([4]; full eradication within 2 hours): 10 fold | eradication of mature biofilm within 2 hours (in words) [1]: neither 1 mg/ml GTN nor 7% citrate alone were able to eradicate | GTN concentration that eradicated C. albicans [1, 5]: 0.2 mg/mL | viable colonies recovered from the biofilm eradication procedure ([1]; component alone at 1 mg/ml): 5.00E+03 cfu/ml | GTN concentration that fully eradicated MRSA [2, 5]: 0.5 mg/mL | GTN concentration required to eradicate MRSA ([2]; 15% ethanol, FIG. 6): 0.2 mg/mL | GTN concentration required to eradicate MRSA ([2]; 20% ethanol, FIG. 7): 0.1 mg/mL | viable colonies recovered from the biofilm eradication procedure ([2]; component alone at 1 mg/ml): 5.00E+03 cfu/ml | eradication of mature biofilm within 2 hours (in words) [3]: neither 1 mg/ml GTN nor 7% citrate alone were able to eradicate | GTN concentration that eradicated P.aeruginosa [3, 5]: 0.2 mg/mL | viable colonies recovered from the biofilm eradication procedure ([3]; component alone at 1 mg/ml): 2.05E+03 cfu/ml

O=S(=O)(O)CCS [MesNA]
viable colonies recovered from the biofilm eradication procedure ([1]; component alone at 5%): 5.00E+05 cfu/ml | viable colonies recovered from the biofilm eradication procedure ([2]; component alone at 5%): 5.00E+05 cfu/ml | viable colonies recovered from the biofilm eradication procedure ([3]; component alone at 5%): 5.00E+05 cfu/ml
